Laboratory results: patent US20260042764A1, “COMPOSITIONS AND METHODS FOR INHIBITION OF KRAS” (TheRas, Inc., priority 2022, published 2026)

Tests used:
[1] = tested on: SW620 cells (KRAS G12V); assay: Cell-based pERK HTRF assay in SW620 cell (Biological Example 4); settings: Homo sapiens, SW-620, SW620 (KRAS G12V) cells, pERK HTRF
Outline: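 Read-out: HTRF pERK signal (excitation 320 nm, emission 615 nm) from lysates of SW620 cells after 4 h compound exposure. Dose range was 9 points, half-log steps from 1 μM, in 0.25% DMSO; antibody incubation ran 4–24 h at room temperature.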

[2] = tested on: GP2d cells (KRAS G12D); assay: Cell-based pERK HTRF assay in GP2d cell (Biological Example 2); settings: GP2d, GP2d (KRAS G12D) cells, pERK HTRF
Outline: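 GP2d (KRAS G12D) cells were plated in DMEM/10% FBS and treated the next day for 60 min with compounds. Dosing used 9-point half-log series starting at 1 μM or 100 nM in 0.25% DMSO. Lysates were read by HTRF pERK (d2/Eu cryptate antibodies) after 4–24 h at room temperature, with excitation at 320 nm and emission at 615 nm.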

[3] = target: T1, Avi-KRAS WT (1-169) GppNHp/RAF1 RBD-3xFLAG (52-151) (Homo sapiens, UniProt P01116); assay: Raf1-KRAS WT-GppNHP disruption HTRF assay (Biological Example 1); assay type: binding
T1 construct: Avi-KRAS WT (1-169)
T1 sequence (P01116 1-169 isoform P01116-2): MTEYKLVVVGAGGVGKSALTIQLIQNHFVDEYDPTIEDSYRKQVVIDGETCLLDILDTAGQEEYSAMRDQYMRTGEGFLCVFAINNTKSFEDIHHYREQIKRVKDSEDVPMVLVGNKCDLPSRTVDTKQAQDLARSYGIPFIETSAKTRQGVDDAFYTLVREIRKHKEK
Outline: (§1)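 HTRF PPI disruption; buffer 50 mM Tris pH 7.5, 100 mM NaCl, 5 mM MgCl2, 0.1% BSA, 0.01% Tween, 10% DMSO. Protein mix 1 h RT shaking, reagent mix 1 h RT shaking. Data as % activity vs DMSO (100%).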

[4] = target: T2, Avi-KRAS G12D (1-169) GppNHp/RAF1 RBD-3xFLAG (52-151) (Homo sapiens, UniProt P01116, G12D); assay: Raf1-KRAS G12D-GppNHP disruption HTRF assay (Biological Example 1); assay type: binding
T2 construct: Avi-KRAS G12D (1-169)
T2 sequence (P01116 1-169 isoform P01116-2 G12D): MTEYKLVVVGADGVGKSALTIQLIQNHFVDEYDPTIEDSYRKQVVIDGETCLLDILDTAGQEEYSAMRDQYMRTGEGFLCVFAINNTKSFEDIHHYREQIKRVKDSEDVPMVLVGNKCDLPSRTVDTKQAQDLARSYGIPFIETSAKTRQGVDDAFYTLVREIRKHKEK
Outline: as §1

[5] = target: T3, Avi-KRAS G12R (1-169) GppNHp/RAF1 RBD-3xFLAG (52-151) (Homo sapiens, UniProt P01116, G12R); assay: Raf1-KRAS G12R-GppNHP disruption HTRF assay (Biological Example 1); assay type: binding
T3 construct: Avi-KRAS G12R (1-169)
T3 sequence (P01116 1-169 isoform P01116-2 G12R): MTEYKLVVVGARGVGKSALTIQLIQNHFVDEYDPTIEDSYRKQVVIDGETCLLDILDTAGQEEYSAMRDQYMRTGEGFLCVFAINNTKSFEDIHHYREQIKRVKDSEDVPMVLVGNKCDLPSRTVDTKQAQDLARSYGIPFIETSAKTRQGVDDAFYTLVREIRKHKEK
Outline: as §1

[6] = target: T4, Avi-KRAS G12V (1-169) GppNHp/RAF1 RBD-3xFLAG (52-151) (Homo sapiens, UniProt P01116, G12V); assay: Raf1-KRAS G12V-GppNHP disruption HTRF assay (Biological Example 1); assay type: binding
T4 construct: Avi-KRAS G12V (1-169)
T4 sequence (P01116 1-169 isoform P01116-2 G12V): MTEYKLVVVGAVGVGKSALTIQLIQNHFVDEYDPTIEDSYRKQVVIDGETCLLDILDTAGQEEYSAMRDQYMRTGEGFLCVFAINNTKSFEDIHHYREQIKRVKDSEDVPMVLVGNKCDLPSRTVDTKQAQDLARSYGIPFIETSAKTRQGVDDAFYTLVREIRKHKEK
Outline: as §1

[7] = KRAS WT, GppNHp-loaded, class symbols
[8] = KRAS G12D, GppNHp-loaded, class symbols
[9] = KRAS G12R, GppNHp-loaded, class symbols
[10] = KRAS G12V, GppNHp-loaded, class symbols
[11] = KRAS WT, GppNHp-loaded, Table 11
[12] = KRAS G12D, GppNHp-loaded, Table 11
[13] = KRAS G12R, GppNHp-loaded, Table 11
[14] = KRAS G12V, GppNHp-loaded, Table 11

| Structure (SMILES) | IC50 ([1]; class symbols) [nM] | IC50 ([2]; class symbols) [nM] | IC50 [3, 7] [nM] | IC50 [4, 8] [nM] | IC50 [5, 9] [nM] | IC50 [6, 10] [nM] | IC50 [1] [nM] | IC50 [2] [nM] | IC50 ([3]; KRAS WT-GppNHp/RAF1 RBD HTRF) [nM] | IC50 ([4]; KRAS G12D-GppNHp/RAF1 RBD HTRF) [nM] | IC50 ([5]; KRAS G12R-GppNHp/RAF1 RBD HTRF) [nM] | IC50 ([6]; KRAS G12V-GppNHp/RAF1 RBD HTRF) [nM] | IC50 [3, 11] [nM] | IC50 [4, 12] [nM] | IC50 [5, 13] [nM] | IC50 [6, 14] [nM] |
| --- | --- | --- | --- | --- | --- | --- | --- | --- | --- | --- | --- | --- | --- | --- | --- | --- |
| C[C@]1(CO)CCN1c1nc(OC[C@@]23CCCN2C[C@H](F)C3)nc2c(F)c(-c3ccc(F)c4sc(N)c(C#N)c34)c(C(F)(F)F)cc12 [Compound 429] |  |  |  |  |  |  | < 100 | < 100 | 1000 to 10000 | 100 to 1000 | 1000 to 10000 | 1000 to 10000 |  |  |  |  |
| N#Cc1c(N)sc2c(F)ccc(-c3c(C(F)(F)F)cc4c(N5C[C@H]6C[C@H](O)[C@@H]5C6)nc(OC[C@@]56CCCN5C[C@H](F)C6)nc4c3F)c12 [Compound 361] |  |  |  |  |  |  | < 100 | < 100 | 100 to 1000 | 100 to 1000 | 100 to 1000 | 1000 to 10000 |  |  |  |  |
| CC(=O)N1C[C@@H](N(C)c2nc(OC[C@@]34CCCN3C[C@H](F)C4)nc3c(F)c(-c4ccc(F)c5sc(N)c(C#N)c45)c(C(F)(F)F)cc23)C[C@H]1C [Compound 277] |  |  |  |  |  |  | < 100 | < 100 |  |  |  |  | 100 to 1000 | 100 to 1000 | 100 to 1000 | 100 to 1000 |
| CC(=O)N1CC[C@H](N(C)c2nc(OC[C@@H]3CC4(CC4)CN3C)nc3c(F)c(-c4ccc(F)c5sc(N)c(C#N)c45)c(C(F)(F)F)cc23)[C@@H]1C [Compound 227] |  |  |  |  |  |  | 100 to 1000 | 100 to 1000 |  |  |  |  | > 10000 | 1000 to 10000 | > 10000 | > 10000 |
| C[C@@H]1[C@H](N(C)c2nc(OC[C@@]34CCCN3C[C@H](F)C4)nc3c(F)c(-c4ccc(F)c5sc(N)c(C#N)c45)c(Cl)cc23)CCN1C(=O)C1(F)CC1 [Compound 422] |  |  |  |  |  |  | 100 to 1000 | 100 to 1000 | 1000 to 10000 | 1000 to 10000 | 1000 to 10000 | 1000 to 10000 |  |  |  |  |
| CN(c1nc(OC[C@@]23CCCN2C[C@H](F)C3)nc2c(F)c(-c3ccc(F)c4sc(N)c(C#N)c34)c(C(F)(F)F)cc12)[C@H]1CCCOC1 [Compound 280] |  |  |  |  |  |  | < 100 | < 100 | 100 to 1000 | 100 to 1000 | 100 to 1000 | 100 to 1000 |  |  |  |  |

Continued, values first:

| IC50 ([1]; class symbols) [nM] | IC50 ([2]; class symbols) [nM] | IC50 [3, 7] [nM] | IC50 [4, 8] [nM] | IC50 [5, 9] [nM] | IC50 [6, 10] [nM] | IC50 [1] [nM] | IC50 [2] [nM] | IC50 ([3]; KRAS WT-GppNHp/RAF1 RBD HTRF) [nM] | IC50 ([4]; KRAS G12D-GppNHp/RAF1 RBD HTRF) [nM] | IC50 ([5]; KRAS G12R-GppNHp/RAF1 RBD HTRF) [nM] | IC50 ([6]; KRAS G12V-GppNHp/RAF1 RBD HTRF) [nM] | IC50 [3, 11] [nM] | IC50 [4, 12] [nM] | IC50 [5, 13] [nM] | IC50 [6, 14] [nM] | Structure (SMILES) |
| --- | --- | --- | --- | --- | --- | --- | --- | --- | --- | --- | --- | --- | --- | --- | --- | --- |
| < 100 | < 100 | < 100 | < 100 | < 100 | < 100 |  |  |  |  |  |  |  |  |  |  | CCN(c1nc(OC[C@@]23CCCN2C[C@H](F)C3)nc2c(F)c(-c3ccc(F)c4sc(N)c(C#N)c34)c(C(F)(F)F)cc12)[C@H]1C[C@H]2CN(C3CCC3)C(=O)N2C1 (atropisomer, axis not shown) [Compound 757] |
| < 100 | < 100 | < 100 | < 100 | < 100 | < 100 |  |  |  |  |  |  |  |  |  |  | CCN(C)C(=O)N1CC[C@H](N(CC)c2nc(OC[C@@]34CCCN3C[C@H](F)C4)nc3c(F)c(-c4ccc(F)c5sc(N)c(C#N)c45)c(C(F)(F)F)cc23)C1 (atropisomer, axis not shown) [Compound 582] |
|  |  |  |  |  |  | < 100 | < 100 | 100 to 1000 | 1000 to 10000 | 1000 to 10000 | 1000 to 10000 |  |  |  |  | CCN(c1nc(OC[C@@]23CCCN2C[C@H](F)C3)nc2c(F)c(-c3ccc(F)c4sc(N)c(C#N)c34)c(C(F)(F)F)cc12)[C@@H]1C[C@@H](C)N(C(=O)N(C)C)C1 (atropisomer, axis not shown) [Compound 525] |
| < 100 | < 100 | 100 to 1000 | < 100 | 100 to 1000 | 100 to 1000 |  |  |  |  |  |  |  |  |  |  | CO[C@@H](C)C(=O)N1CC[C@H](N(c2nc(OC[C@@]34CCCN3C[C@H](F)C4)nc3c(F)c(-c4ccc(F)c5sc(N)c(C#N)c45)c(C(F)(F)F)cc23)C2CC2)C1 (atropisomer, axis not shown) [Compound 811] |
| < 100 | < 100 | 100 to 1000 | < 100 | 100 to 1000 | 100 to 1000 |  |  |  |  |  |  |  |  |  |  | N#Cc1c(N)sc2c(F)ccc(-c3c(C(F)(F)F)cc4c(N(C5CC5)[C@H]5CCN(C(=O)N6CC(F)C6)C5)nc(OC[C@@]56CCCN5C[C@H](F)C6)nc4c3F)c12 (atropisomer, axis not shown) [Compound 813] |
